Measured values: ChEMBL document CHEMBL5291721, “A preclinical secondary pharmacology resource illuminates target-adverse drug reaction associations of marketed drugs” (Nat Commun, 2023)

How the values were obtained:
[1] = target: Voltage-gated inwardly rectifying potassium channel KCNH2 (Homo sapiens, UniProt Q12809); format: functional
[2] = target: T1, Alpha-1A adrenergic receptor (Homo sapiens, UniProt P35348); format: functional, cell-based
T1 sequence (P35348 whole entry): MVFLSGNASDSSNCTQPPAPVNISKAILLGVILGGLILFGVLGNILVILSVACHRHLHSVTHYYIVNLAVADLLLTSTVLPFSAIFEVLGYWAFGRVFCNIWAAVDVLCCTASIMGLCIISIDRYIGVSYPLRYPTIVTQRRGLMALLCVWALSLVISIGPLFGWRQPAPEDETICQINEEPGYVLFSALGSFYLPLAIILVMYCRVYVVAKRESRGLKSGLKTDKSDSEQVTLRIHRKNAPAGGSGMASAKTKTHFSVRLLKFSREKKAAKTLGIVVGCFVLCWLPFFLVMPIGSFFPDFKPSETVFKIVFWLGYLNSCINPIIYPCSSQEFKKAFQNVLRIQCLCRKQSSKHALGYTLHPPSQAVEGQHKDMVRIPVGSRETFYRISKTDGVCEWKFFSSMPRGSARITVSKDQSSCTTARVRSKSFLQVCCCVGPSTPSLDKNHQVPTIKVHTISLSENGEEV

[3] = target: Prostaglandin G/H synthase 1 (Homo sapiens, UniProt P23219); format: functional
Chain of Prostaglandin G/H synthase 1 (P23219 whole entry): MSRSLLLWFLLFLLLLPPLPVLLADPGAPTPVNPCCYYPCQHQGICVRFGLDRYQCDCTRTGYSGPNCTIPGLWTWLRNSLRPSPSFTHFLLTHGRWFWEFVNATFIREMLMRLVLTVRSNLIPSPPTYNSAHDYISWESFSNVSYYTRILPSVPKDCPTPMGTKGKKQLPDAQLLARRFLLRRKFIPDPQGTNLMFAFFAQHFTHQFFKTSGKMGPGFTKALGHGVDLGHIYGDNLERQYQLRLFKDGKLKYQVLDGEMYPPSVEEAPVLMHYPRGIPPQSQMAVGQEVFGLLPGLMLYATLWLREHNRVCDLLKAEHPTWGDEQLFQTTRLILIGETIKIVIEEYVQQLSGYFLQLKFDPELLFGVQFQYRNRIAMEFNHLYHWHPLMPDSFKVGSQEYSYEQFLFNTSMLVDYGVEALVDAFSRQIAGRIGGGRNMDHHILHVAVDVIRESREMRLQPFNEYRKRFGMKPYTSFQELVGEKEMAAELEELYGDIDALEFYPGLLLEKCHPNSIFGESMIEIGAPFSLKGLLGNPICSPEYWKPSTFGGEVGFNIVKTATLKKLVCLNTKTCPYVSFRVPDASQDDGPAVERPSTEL

[4] = target: 3',5'-cyclic-AMP phosphodiesterase 4A (Homo sapiens, UniProt P27815); format: functional
Chain of 3',5'-cyclic-AMP phosphodiesterase 4A (P27815 whole entry): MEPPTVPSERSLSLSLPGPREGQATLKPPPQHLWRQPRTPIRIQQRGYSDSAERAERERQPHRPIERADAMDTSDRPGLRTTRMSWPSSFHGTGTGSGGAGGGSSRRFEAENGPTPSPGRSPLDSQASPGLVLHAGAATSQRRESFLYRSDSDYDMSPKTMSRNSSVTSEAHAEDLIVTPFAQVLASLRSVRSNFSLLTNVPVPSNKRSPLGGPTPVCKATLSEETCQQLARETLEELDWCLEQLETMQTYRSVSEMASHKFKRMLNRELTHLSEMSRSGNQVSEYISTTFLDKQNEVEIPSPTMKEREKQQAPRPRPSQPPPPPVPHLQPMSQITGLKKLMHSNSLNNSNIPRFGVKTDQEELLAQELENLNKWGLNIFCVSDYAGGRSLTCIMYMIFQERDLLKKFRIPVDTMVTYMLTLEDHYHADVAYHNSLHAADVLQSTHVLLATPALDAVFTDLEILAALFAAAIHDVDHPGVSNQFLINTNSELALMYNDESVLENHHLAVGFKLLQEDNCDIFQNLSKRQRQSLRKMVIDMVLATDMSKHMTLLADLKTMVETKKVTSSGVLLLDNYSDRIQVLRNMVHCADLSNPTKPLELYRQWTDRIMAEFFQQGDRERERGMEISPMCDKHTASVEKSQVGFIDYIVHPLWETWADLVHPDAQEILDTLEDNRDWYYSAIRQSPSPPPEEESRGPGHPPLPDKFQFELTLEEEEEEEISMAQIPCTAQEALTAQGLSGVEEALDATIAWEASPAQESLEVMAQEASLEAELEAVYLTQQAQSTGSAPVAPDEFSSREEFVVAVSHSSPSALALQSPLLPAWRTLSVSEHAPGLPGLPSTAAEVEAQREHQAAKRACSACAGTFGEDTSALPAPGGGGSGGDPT

[5] = target: 5-hydroxytryptamine receptor 2B (Homo sapiens, UniProt P41595); format: functional, cell-based
Chain of 5-hydroxytryptamine receptor 2B (P41595 whole entry): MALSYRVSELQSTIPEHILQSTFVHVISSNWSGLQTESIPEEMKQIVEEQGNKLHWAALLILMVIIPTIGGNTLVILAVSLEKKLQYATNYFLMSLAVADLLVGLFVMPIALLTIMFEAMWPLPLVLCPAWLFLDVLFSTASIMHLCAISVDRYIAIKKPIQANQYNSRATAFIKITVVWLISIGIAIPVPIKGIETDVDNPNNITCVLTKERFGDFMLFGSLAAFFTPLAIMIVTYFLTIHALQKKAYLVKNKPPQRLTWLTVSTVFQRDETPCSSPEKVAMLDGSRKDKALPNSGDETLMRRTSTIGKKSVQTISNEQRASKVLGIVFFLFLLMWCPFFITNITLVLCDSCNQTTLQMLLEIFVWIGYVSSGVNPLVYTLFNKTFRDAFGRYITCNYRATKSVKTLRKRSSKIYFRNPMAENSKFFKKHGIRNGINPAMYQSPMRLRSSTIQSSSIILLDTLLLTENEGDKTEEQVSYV

Progesterone receptor = target: T2, Progesterone receptor (Homo sapiens, UniProt P06401)
T2 sequence (P06401 whole entry): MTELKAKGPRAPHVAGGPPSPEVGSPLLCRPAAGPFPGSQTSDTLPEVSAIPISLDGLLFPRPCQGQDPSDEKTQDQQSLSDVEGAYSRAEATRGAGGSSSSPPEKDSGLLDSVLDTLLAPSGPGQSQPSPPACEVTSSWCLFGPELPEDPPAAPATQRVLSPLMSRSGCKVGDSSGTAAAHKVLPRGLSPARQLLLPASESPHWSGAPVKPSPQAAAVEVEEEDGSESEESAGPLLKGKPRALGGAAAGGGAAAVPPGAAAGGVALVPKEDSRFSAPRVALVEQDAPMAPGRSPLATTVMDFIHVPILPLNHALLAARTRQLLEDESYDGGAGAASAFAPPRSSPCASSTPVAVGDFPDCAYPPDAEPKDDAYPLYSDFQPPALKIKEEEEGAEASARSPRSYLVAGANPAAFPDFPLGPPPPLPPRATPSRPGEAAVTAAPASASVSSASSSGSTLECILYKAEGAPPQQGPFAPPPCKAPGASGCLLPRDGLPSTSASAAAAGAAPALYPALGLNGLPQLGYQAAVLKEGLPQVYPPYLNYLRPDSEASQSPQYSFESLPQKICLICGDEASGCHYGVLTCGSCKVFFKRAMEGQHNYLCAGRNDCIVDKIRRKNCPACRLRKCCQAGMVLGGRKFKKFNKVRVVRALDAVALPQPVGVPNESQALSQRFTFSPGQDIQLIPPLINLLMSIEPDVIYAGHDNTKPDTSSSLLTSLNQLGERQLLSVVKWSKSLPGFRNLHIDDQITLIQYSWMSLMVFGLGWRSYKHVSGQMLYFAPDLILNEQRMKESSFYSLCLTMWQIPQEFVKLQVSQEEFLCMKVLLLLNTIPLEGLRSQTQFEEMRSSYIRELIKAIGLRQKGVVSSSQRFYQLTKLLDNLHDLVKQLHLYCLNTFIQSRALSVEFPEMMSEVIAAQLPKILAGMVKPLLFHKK

Acetylcholinesterase = Acetylcholinesterase (Homo sapiens, UniProt P22303); format: functional
[6] = target: T3, Alpha-2A adrenergic receptor (Homo sapiens, UniProt P08913)
T3 sequence (P08913 whole entry): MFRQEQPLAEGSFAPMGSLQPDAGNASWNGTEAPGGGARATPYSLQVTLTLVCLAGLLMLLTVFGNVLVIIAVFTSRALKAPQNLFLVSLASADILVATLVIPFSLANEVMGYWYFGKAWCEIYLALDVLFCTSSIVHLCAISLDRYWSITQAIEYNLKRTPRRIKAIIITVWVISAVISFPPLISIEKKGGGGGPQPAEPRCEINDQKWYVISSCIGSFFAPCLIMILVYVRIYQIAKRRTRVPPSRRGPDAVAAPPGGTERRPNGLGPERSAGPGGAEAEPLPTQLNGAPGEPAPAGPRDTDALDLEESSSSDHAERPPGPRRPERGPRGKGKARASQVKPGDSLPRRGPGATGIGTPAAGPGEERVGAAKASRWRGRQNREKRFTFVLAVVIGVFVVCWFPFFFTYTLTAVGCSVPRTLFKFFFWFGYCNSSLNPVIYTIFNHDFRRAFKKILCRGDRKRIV

Prothrombin = Prothrombin (Homo sapiens, UniProt P00734); format: functional
[7] = target: Sodium-dependent dopamine transporter (Homo sapiens, UniProt Q01959)
Chain of Sodium-dependent dopamine transporter (Q01959 whole entry): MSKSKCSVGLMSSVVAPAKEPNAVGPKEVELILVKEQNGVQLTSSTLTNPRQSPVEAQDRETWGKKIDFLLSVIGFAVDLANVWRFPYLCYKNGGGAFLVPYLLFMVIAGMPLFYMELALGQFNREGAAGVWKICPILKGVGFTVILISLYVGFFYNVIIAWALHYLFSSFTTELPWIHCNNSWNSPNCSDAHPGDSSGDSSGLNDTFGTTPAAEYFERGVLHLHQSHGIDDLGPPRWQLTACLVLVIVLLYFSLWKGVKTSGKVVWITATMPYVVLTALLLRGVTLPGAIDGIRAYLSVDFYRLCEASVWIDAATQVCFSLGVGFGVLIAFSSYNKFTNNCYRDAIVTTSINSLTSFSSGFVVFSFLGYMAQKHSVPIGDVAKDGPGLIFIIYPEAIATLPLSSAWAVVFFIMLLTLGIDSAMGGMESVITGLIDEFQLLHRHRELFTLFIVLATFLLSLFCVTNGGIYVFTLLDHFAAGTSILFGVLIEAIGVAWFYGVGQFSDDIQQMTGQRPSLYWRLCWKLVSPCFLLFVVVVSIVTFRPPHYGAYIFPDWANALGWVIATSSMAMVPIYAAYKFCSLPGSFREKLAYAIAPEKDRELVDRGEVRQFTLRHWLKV

[8] = target: T4, Muscarinic acetylcholine receptor M2 (Homo sapiens, UniProt P08172)
T4 sequence (P08172 whole entry): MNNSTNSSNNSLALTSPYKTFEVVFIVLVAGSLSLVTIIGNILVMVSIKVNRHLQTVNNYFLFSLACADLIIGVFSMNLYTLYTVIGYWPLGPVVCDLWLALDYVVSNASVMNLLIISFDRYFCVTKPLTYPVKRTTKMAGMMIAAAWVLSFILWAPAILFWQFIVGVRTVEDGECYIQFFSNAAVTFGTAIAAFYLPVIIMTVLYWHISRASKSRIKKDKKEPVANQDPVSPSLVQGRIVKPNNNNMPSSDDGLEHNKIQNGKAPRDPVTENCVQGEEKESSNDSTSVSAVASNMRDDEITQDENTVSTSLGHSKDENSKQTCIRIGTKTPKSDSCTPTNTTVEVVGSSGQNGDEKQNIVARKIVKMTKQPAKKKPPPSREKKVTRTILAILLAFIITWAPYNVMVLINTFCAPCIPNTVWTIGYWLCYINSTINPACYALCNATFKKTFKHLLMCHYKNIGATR

D(1A) dopamine receptor = D(1A) dopamine receptor (Homo sapiens, UniProt P21728)
Mu-type opioid receptor = Mu-type opioid receptor (Homo sapiens, UniProt P35372)
[9] = target: cGMP-inhibited 3',5'-cyclic phosphodiesterase 3A (Homo sapiens, UniProt Q14432); format: functional
Chain of cGMP-inhibited 3',5'-cyclic phosphodiesterase 3A (Q14432 whole entry): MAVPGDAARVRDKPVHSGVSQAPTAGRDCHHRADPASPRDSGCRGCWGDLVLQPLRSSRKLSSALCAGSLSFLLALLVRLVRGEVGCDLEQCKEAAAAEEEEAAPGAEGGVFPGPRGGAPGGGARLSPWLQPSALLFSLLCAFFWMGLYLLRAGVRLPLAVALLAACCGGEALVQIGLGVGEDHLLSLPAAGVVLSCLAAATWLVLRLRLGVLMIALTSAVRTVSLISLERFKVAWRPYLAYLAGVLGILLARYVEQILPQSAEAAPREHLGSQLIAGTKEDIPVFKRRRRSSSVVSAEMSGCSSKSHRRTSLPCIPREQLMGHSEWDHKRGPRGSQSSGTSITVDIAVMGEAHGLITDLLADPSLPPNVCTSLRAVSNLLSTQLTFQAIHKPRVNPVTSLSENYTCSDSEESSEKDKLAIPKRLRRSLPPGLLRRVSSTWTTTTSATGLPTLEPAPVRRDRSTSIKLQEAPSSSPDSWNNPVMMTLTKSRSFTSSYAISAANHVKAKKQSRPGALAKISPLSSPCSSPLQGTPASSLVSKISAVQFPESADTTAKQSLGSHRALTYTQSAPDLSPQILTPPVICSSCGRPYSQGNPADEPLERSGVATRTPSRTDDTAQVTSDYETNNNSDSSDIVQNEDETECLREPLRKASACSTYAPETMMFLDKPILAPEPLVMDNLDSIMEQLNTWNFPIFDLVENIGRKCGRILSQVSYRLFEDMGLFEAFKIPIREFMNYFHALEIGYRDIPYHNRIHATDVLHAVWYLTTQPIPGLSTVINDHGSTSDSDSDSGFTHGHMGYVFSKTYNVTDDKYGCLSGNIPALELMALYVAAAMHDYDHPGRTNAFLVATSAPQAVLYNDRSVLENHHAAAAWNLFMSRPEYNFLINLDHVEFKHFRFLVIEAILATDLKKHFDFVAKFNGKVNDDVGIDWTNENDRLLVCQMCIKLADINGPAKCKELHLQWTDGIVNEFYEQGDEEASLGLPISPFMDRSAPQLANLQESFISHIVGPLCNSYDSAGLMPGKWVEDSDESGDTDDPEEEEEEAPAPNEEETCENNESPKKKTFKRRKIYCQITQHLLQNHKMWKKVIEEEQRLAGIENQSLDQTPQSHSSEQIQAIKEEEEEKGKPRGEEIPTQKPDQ

Histamine H3 receptor = Histamine H3 receptor (Homo sapiens, UniProt Q9Y5N1)
Also: assay procedure not described here.

Chain of Voltage-gated inwardly rectifying potassium channel KCNH2 (Q12809 whole entry): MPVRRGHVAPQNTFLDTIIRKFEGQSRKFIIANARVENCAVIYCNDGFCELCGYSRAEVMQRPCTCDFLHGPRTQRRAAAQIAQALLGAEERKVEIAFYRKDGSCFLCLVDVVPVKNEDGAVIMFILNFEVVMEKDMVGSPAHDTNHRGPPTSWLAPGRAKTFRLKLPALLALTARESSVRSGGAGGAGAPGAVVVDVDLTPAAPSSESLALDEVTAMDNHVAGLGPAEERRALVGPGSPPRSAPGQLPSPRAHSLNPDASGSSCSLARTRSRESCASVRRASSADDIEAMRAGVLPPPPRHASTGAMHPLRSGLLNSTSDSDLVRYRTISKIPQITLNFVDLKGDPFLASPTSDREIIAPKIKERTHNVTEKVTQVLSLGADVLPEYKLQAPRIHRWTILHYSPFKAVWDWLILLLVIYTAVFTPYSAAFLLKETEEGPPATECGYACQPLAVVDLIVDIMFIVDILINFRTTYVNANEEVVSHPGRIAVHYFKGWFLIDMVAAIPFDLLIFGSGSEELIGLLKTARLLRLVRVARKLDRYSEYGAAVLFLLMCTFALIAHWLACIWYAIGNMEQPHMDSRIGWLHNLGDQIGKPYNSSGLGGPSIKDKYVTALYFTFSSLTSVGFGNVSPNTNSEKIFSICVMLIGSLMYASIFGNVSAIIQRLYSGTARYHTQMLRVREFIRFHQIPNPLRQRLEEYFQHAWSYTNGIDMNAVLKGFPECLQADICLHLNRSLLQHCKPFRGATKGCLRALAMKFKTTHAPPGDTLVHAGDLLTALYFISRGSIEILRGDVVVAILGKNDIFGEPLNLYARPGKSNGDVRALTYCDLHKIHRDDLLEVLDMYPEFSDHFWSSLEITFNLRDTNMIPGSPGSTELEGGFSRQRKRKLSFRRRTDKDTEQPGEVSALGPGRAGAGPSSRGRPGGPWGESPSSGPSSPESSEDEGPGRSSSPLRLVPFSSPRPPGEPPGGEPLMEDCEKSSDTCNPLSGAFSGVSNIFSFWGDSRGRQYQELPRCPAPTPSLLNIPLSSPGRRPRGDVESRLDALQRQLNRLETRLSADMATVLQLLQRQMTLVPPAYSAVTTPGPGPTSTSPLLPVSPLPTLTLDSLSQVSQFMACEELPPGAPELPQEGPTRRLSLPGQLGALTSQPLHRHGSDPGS

Row | Structure (SMILES) | AC50 [1] [µM] | AC50 [2] [µM] | AC50 [3] [µM] | AC50 [4] [µM] | AC50 [5] [µM] | AC50 (Progesterone receptor) [µM] | AC50 (Acetylcholinesterase) [µM] | AC50 [6] [µM] | AC50 (Prothrombin) [µM] | AC50 [7] [µM] | AC50 [8] [µM] | AC50 (D(1A) dopamine receptor) [µM] | AC50 (Mu-type opioid receptor) [µM] | AC50 [9] [µM] | AC50 (Histamine H3 receptor) [µM]
1 | C=C(C)CNc1ccc(C(C)C(=O)O)cc1 (stereo not given) [ALMINOPROFEN] | > 30 | > 30 | > 30 | > 30 | > 30 | > 30 | > 30 | > 30 | > 30 | > 30 | > 30 | > 30 | > 30 | > 30 | > 30
2 | Cc1cc(C2CCCCC2)n(O)c(=O)c1 [CICLOPIROX] | > 30 | 23.1 | > 30 | > 30 | > 30 | > 30 | > 30 | > 30 | > 30 | > 30 | > 30 | > 30 | > 30 | > 30 | > 30
3 | C[N+](C)(C)CCOP(=O)(O)OP(=O)([O-])OC[C@H]1O[C@@H](n2ccc(N)nc2=O)[C@H](O)[C@@H]1O [CITICOLINE] | > 30 | > 30 | > 30 | > 30 | > 30 | > 30 | > 30 | > 30 | > 30 | > 30 | > 30 | > 30 | > 30 | > 30 | > 30
4 | C[C@H]1O[C@@H](O[C@H]2CC[C@@]3(C)[C@H](CC[C@@H]4[C@@H]3C[C@@H](O)[C@]3(C)[C@@H](C5=CC(=O)OC5)CC[C@]43O)C2)C[C@H](O)[C@@H]1O[C@H]1C[C@H](O)[C@H](O[C@H]2C[C@H](O)[C@H](O[C@@H]3O[C@H](CO)[C@@H](O)[C@H](O)[C@H]3O)[C@@H](C)O2)[C@@H](C)O1 [DESLANOSIDE] | > 30 | > 30 | > 30 | > 30 | > 30 | > 30 | > 30 | > 30 | > 30 | > 30 | > 30 | > 30 | > 30 | > 30 | > 30
5 | CC[C@H]1OC(=O)[C@H](C)[C@@H](O[C@H]2C[C@@](C)(OC)[C@@H](O)[C@H](C)O2)[C@H](C)[C@@H](O[C@@H]2O[C@H](C)C[C@H](N(C)C)[C@H]2O)[C@](C)(O)C[C@@H](C)[C@@H]2N[C@@H](COCCOC)O[C@H]([C@H]2C)[C@]1(C)O [DIRITHROMYCIN] | > 30 | > 30 | 9.63 | > 30 | > 30 | > 30 | > 30 | > 30 | > 30 | > 30 | > 30 | > 30 | > 30 | > 30 | > 30
6 | O=C(O)Cc1ccccc1Oc1ccc(Cl)cc1Cl [FENCLOFENAC] | > 30 | > 30 | > 30 | > 30 | > 30 | > 30 | > 30 | > 30 | > 30 | > 30 | > 30 | > 30 | > 30 | > 30 | > 30
7 | CC(C(=O)O)c1cccc(Oc2ccccc2)c1 (stereo not given) [FENOPROFEN] | > 30 | > 30 | 1.52 | > 30 | > 30 | > 30 | > 30 | > 30 | > 30 | > 30 | > 30 | > 30 | > 30 | > 30 | > 30
8 | CC1(C)O[C@@H]2C[C@H]3[C@@H]4C[C@H](F)C5=CC(=O)C=C[C@]5(C)[C@@]4(F)[C@@H](O)C[C@]3(C)[C@]2(C(=O)CO)O1 [FLUOCINOLONE ACETONIDE] | > 30 | > 30 | > 30 | > 30 | > 30 | 0.0107 | > 30 | > 30 | > 30 | > 30 | > 30 | > 30 | > 30 | > 30 | > 30
9 | O=C(O)P(=O)(O)O [FOSCARNET] | > 30 | > 30 | > 30 | > 30 | > 30 | > 30 | > 30 | > 30 | > 30 | > 30 | > 30 | > 30 | > 30 | > 30 | > 30
10 | Cc1ccc(C)c(OCCCC(C)(C)C(=O)O)c1 [GEMFIBROZIL] | > 30 | > 30 | > 30 | > 30 | > 30 | > 30 | > 30 | > 30 | > 30 | > 30 | > 30 | > 30 | > 30 | > 30 | > 30
11 | COc1ccccc1OC1(C)OC(=O)c2ccccc2O1 (stereo not given) [GUAIMESAL] | > 30 | > 30 | > 30 | > 30 | > 30 | > 30 | > 30 | > 30 | > 30 | > 30 | > 30 | > 30 | > 30 | > 30 | > 30
